According to patent US6352722B1, “Derivatized carbohydrates, compositions comprised thereof and methods of use thereof” (Quadrant Holdings Cambridge Limited, priority 1997, dated 2002):

Experiments:
[1] = Glass formation, crystallization and glass stability above ambient temperature; assay type: physicochemical
Excerpt: In the usual process to form a vitreous glass, a high temperature melt is quenched (cooled quickly) to solidify without crystallization to a vitreous glass. Most glassy materials can theoretically quench to a vitreous glass, however, factors such as low melt viscosity, thermodynamically favorable crystalline states and thermal degradation, limit their potential to form vitreous rather than crystalline solids.
(§1) The carbohydrate derivatives were routinely synthesized by standard esterification of the carbohydrate with the chloride of the desired hydrocarbon side chain under anhydrous conditions and the resulting derivatives purified by standard techniques of solvent extraction and re-crystallization. For example, trehalose octa-3,3-dimethylbutyrate was synthesized by reacting 3,3,-dimethylbutyroyl chloride with trehalose in anhydrous pyridine, followed by extraction with ether, hydrochloric acid, potassium carbonate solution and water and finally re-crystallized twice from alcohol to yield colorless, needle-like crystals (˜80% yield) of m.pt 138-140° C., αD 112°. Trehalose hexa-3,3-dimethylbutyrate (THEX) can be prepared by protecting the 6,6′-hydroxy group of trehalose with a bulky group such as trityl or t-butyldiphenylsilyl, for example by heating trehalose and trityl chloride in pyridine. The 6,6′-ditrityltrehalose can be acylated with 3,3-dimethylbutyroyl chloride in pyridine to give 6,6′-ditritylhexa-3,3-dimethylbutyryltrehalose. The trityl group can be removed by strong acid, for example hydrogen bromide in acetic acid, to give THEX. TACT can be prepared by acylating THEX with acetic anhydride in pyridine. Suitable work-up yields the HDC in crystalline form. The physical characteristics, melting points and glass transition temperatures (Tg, ° C.) of selected carbohydrate derivatives are shown in Tables 1-5.
This unusual property of branched-chain derivatives enables more hydrophobic derivatives (compared to the acetates) to be prepared, which permits further reduction of drug release rates for longer term applications.

[2] = Glass transition temperature (Tg) of derivatized carbohydrates, by DSC; assay type: physicochemical
Excerpt: The reaction product can be characterized structurally by methods known in the art, including, but not limited to, nuclear magnetic resonance spectroscopy (NMR) and its material science properties characterized by differential scanning calorimetry (DSC). The characteristic melting points and Tgs (glass transition temperatures) for the derivatized carbohydrates can also be determined by DSC and other methods known in the art.
as §1

[3] = Tg of HDC formulations with incorporated active; assay type: physicochemical
Excerpt: (§2) The model hydrophilic drug, diltiazem hydrochloride (“hydrophilic active”), was incorporated (10% loading) into solid vehicles of the single straight chain HDC trehalose octaacetate or the branched chain HDCs trehalose octa-3,3, dimethylbutyrate and trehalose octapivalate as well as composite formulations (1:1 ratio) of the two branched-chain HDCs or the straight chain HDC trehalose octaacetate and the branched chain HDC trehalose octapivalate, by quenching from the melt. Release of the active from the HDC solid dose delivery vehicle was assessed using an in vitro USP (volume 23) type 2 dissolution test in saline containing 0.1% sodium cholate as the dissolution medium.
The model hydrophilic drug diltiazem hydrochloride was also incorporated (5% loading) into solid vehicles of the single branched chain HDCs trehalose diisobutyrate hexaacetate and trehalose octapivalate and composite formulations (1:1 ratio) of the two branched-chain HDCs by solvent removal by rotary evaporation, in a Buchi Rotavapor R-124, of a 20% solution of active plus HDCs in a dichloromethane: acetone mixed solvent (9:1 ratio) system. […] (trehalose octapivalate) of the single branched-chain HDC formulations of active.
(§3) The model hydrophobic steroid fluticasone propionate (“hydrophobic active”) was incorporated (5% loading) into solid vehicles of the single straight chain HDC trehalose octaacetate or the branched chain HDCs trehalose octa-3,3, dimethylbutyrate and trehalose dipropanoate hexaacetate and composite formulations (1:1 ratio) of the two branched-chain HDCs by either quenching from the melt or solvent evaporation by rotary evaporation. Melt incorporation was carried out by melting the HDCs at 150-170° C. and dissolving the active in the melt at 120-140° C. Rotary evaporation was carried out using a Buchi Rotavapor R-124 using a 20% solution of active plus HDCs in a dichloromethane: acetone mixed solvent (9:1 ratio) system. The hydrophobic active was also incorporated into solid vehicles of the branched chain HDCs, trehalose octapivalate, trehalose diisobutyrate hexaacetate and lactose isobutyrate heptaacetate, either by quenching from the melt or solvent evaporation by rotary evaporation. Release of hydrophobic active from the HDC solid dose delivery vehicle was assessed using an in vitro USP (volume 23) type 2 dissolution test in saline containing 0.1% sodium cholate as the dissolution medium.
(§4) As an example of a polypeptide drug, the polypeptide hormone insulin (“polypeptide active”) was incorporated (10% loading) into solid vehicles of the single branched chain HDCs trehalose diisobutyrate hexaacetate and trehalose hexapivalate and composite formulations of the branched chain HDCs trehalose diisobutyrate hexaacetate and trehalose octapivalate (8:1 ratio) by solvent removal by lyophilization of a 20% solution of insulin plus HDCs in dimethylsulfoxide. […] Release of active from the HDC solid dose delivery vehicle was assessed using an in vitro USP (volume 23) type 2 dissolution test in saline containing 0.1% sodium cholate as the dissolution medium.

[4] = Devitrification / glass stability when immersed in aqueous media; details: immersed in saline medium at 37° C.
[5] = In vitro USP (volume 23) type 2 dissolution test, release of active from HDC solid vehicle; assay type: physicochemical; details: saline with 0.1% sodium cholate; for release of fluticasone propionate from single HDC formulation: compared to trehalose octaacetate formulation Q1 (FIG. 3)
Excerpt: as §2, §3, §4

[6] = derivatized carbohydrate alone, Tables 1-4
[7] = derivatized carbohydrate without active, Table 5
[8] = hydrophobic active (fluticasone propionate, 5% loading) incorporated

| Molecule | Tg(° C.) [2, 6] [°C] | Tg(° C.) [2, 7] [°C] | Tg (° C.) with active incorporated [3, 8] [°C] | also measured |
| --- | --- | --- | --- | --- |
| CC(C)C(=O)OCC1OC(OC2C(COC(=O)C(C)C)OC(OC(=O)C(C)C)C(OC(=O)C(C)C)C2OC(=O)C(C)C)C(OC(=O)C(C)C)C(OC(=O)C(C)C)C1OC(=O)C(C)C (stereo not drawn) [Cellobiose octaisobutyrate] | – | – | – | COMMENT: glass formation / glass stability above ambient temperature [1]: very hard to quench to glass |
| CC(=O)OC[C@H]1O[C@@H](O[C@H]2[C@H](OC(C)=O)[C@@H](OC(C)=O)C(OC(=O)C(C)C)O[C@@H]2COC(C)=O)[C@H](OC(C)=O)[C@@H](OC(C)=O)[C@H]1OC(C)=O (stereo partly drawn) [Lactose isobutyrate heptaacetate] | 60 | 60 | 59 | crystallization from solution ([1]; blend: small amount of the corresponding anomer added): fails to crystallize; crystallization from solution ([1]; pure α,β anomers): crystallize from solution |
| CC(=O)OC[C@H]1O[C@H](O[C@H]2O[C@H](COC(C)=O)[C@@H](OC(=O)CC(C)(C)C)[C@H](OC(=O)CC(C)(C)C)[C@H]2OC(=O)CC(C)(C)C)[C@H](OC(=O)CC(C)(C)C)[C@@H](OC(=O)CC(C)(C)C)[C@@H]1OC(=O)CC(C)(C)C [Trehalose 6,6′-diaacetate hexa-3,3-dimethylbutyrate] | 44 | – | – | stability of the glassy state [4]: the glass stability is reduced |
| Trehalose dipropanoate hexaacetate | – | 38 | 44 | – |
| Trehalose hexa-3,3-dimethylbutyrate | 64 | – | – | stability of the glassy state [4]: stable in the glassy state |
| Trehalose hexapivalate | 86 | 86 | – | Tg (° C.) with active incorporated ([3]; polypeptide active (insulin, 10% loading) incorporated by lyophilization from dimethylsulfoxide): 76.5 °C |

More lines, main results first:

| Tg(° C.) [2, 6] [°C] | Tg(° C.) [2, 7] [°C] | Tg (° C.) with active incorporated [3, 8] [°C] | Molecule | also measured |
| --- | --- | --- | --- | --- |
| 42 | 46 | 45 | CC(C)(C)CC(=O)OC[C@H]1O[C@H](O[C@H]2O[C@H](COC(=O)CC(C)(C)C)[C@@H](OC(=O)CC(C)(C)C)[C@H](OC(=O)CC(C)(C)C)[C@H]2OC(=O)CC(C)(C)C)[C@H](OC(=O)CC(C)(C)C)[C@@H](OC(=O)CC(C)(C)C)[C@@H]1OC(=O)CC(C)(C)C [Trehalose octa-3,3-dimethylbutyrate] | release of diltiazem hydrochloride (DZM) from single HDC formulation ([5]; 10% loading, compared to trehalose octaacetate formulation (FIG. 1)): much slower release; release of fluticasone propionate from single HDC formulation [5]: much slower release |
| 55 | 50 | 53 | CC(=O)OCC1OC(OC2OC(COC(C)=O)C(OC(C)=O)C(OC(C)=O)C2OC(C)=O)C(OC(C)=O)C(OC(C)=O)C1OC(C)=O (stereo not drawn) [Trehalose octaacetate, reference compound] | release of active (insulin) ([5]; after 1 hour in the dissolution assay): 88% |
| 81 | 80 | 80 | CC(C)(C)C(=O)OC[C@H]1O[C@H](O[C@H]2O[C@H](COC(=O)C(C)(C)C)[C@@H](OC(=O)C(C)(C)C)[C@H](OC(=O)C(C)(C)C)[C@H]2OC(=O)C(C)(C)C)[C@H](OC(=O)C(C)(C)C)[C@@H](OC(=O)C(C)(C)C)[C@@H]1OC(=O)C(C)(C)C [Trehalose octapivalate] | release of fluticasone propionate from single HDC formulation [5]: much slower release; Tg (° C.) with active incorporated ([3]; hydrophilic active (diltiazem hydrochloride) incorporated): 83.7 °C |
| 65 | – | – | CC(=O)OCC1OC(OC2C(COC(C)=O)OC(OC(C)=O)C(OC(C)=O)C2OC(C)=O)C(OC(C)=O)C(OC(C)=O)C1OC(C)=O (stereo not drawn) [α-Cellobiose octaacetate, reference compound] | COMMENT: glass formation / glass stability above ambient temperature [1]: Poor glass former |
| 53 | – | – | CC(=O)OCC1OC(OC2C(COC(C)=O)OC(OC(C)=O)C(OC(C)=O)C2OC(C)=O)C(OC(C)=O)C(OC(C)=O)C1OC(C)=O (stereo not drawn) [β-Cellobiose octaacetate, reference compound] | COMMENT: glass formation / glass stability above ambient temperature [1]: Good glass former |
